Columns and labels:
[1] = test system: activated CD4+ T-cells; experiment: In vivo peritoneal recruitment model (CXCL10 i.p.) of pre-treated activated CD4+ T-cells; settings: cells pre-treated with Rapamycin 200 nM, 2-DG 1 mM, Metformin 2 mM; CXCL10 120 ng/mouse i.p.
Experimental: In vivo peritoneal recruitment model: All the in vivo experiments were conducted under the UK Home Office regulation (PPL 70/7443). Activated T-cells (5×10^6/mouse) were pre-treated overnight with Rapamycin (200 nM), 2-Deoxyglucose (1 mM) or Metformin (2 mM), then labelled with the fluorescent cell dye DDAO (Invitrogen) and injected intravenously into syngeneic female C57BL/6 mice that had 3 hours prior received an intraperitoneal injection of CXCL10 (120 ng/mouse). 24 hours after injection, mice were sacrificed and spleen and peritoneal lavage were harvested. T-cells were stained for surface markers (CD4 and CD8, ebiosciences) and analysed by FACS. Cells were first gated on CD4 and subsequently analysed for DDAO positivity. This method was used in FIG. 3G and S3E.

[2] = test system: naive T-cells; experiment: In vitro chemotaxis of naive T-cells towards CCL19/21; type: cell-based, mouse; settings: CCL19/21 200 ng/ml each; Rapamycin 200 nM, 2-DG 1 mM, Metformin 2 mM
Description: (§1) T-cell isolation, in-vitro activation and subset enrichment: T-cells were isolated from C57BL/6 murine lymph nodes and activated for 3 to 5 days with plate bound anti-CD3 and anti-CD28 antibodies (BioLegend), and IL-2 (PeproTech). CD4+ and CD8+ subsets were enriched with commercially available CD4+ and CD8+ T-cell isolation kits according to the manufacturer's instructions (Easysep, Invitrogen) either prior or post activation according to experimental settings. Chemokinesis assays: Chemokinesis assays were performed in 5 μm transwell inlays. In some experiments, T-cells were pre-treated overnight with a number of drugs purchased from Calbiochem: Rapamycin (200 nM), 2-DG (1 mM), Metformin (2 mM). […] 3×10^6 lymphocytes were seeded in the upper transwell chamber; chemokines were added to the lower chamber: CXCL10 (300 ng/ml), CCL5 (50 ng/ml), CCL19/21 (200 ng/ml of each chemokine). Migrated T-cells were counted with a hemocytometer 2, 4 and 6 hours after seeding and % of migrated cells was calculated.

[3] = test system: activated CD4+ T-cells; experiment: Extracellular acidification rate (ECAR), Seahorse analyzer, CD4+ T-cells; type: cell-based, mouse; settings: for effect on glycolysis (ECAR trace) of metabolic drugs: 2-DG 1 mM, Rapamycin 200 nM, Metformin 2 mM, Etomoxir 100 μM
Experimental: (§2) Measurement of lactate, glycolysis, glucose uptake/flux and cell death: Lactate concentration was measured in the synovial fluid or peritoneal lavage using the Lactate assay Kit (Biovision), according to the manufacturer's instructions. Glycolytic metabolism was measured with a Seahorse XF24 Extracellular Flux Analyzer. Briefly, T-cells were grown in high glucose RPMI-1640 supplemented with 10% FCS. […] T-cell viability upon lactate or metabolic drug treatment was assessed by trypan blue exclusion assay.

[4] = test system: activated CD4+ T-cells; experiment: In vitro chemokinesis of activated CD4+ T-cells towards CXCL10 (transwell); type: cell-based, mouse; settings: for chemokinesis in vitro towards CXCL10 of pre-treated activated CD4+ T-cells: pre-treated overnight: Rapamycin 200 nM, 2-DG 1 mM, Metformin 2 mM
Description: as §1

[5] = target: T1, Slc16a1 on CD8+ T-cells (Mus musculus, UniProt P53986); experiment: Blockade of Slc16a1: chemokinesis of CD8+ T-cells exposed to lactic-acid; type: cell-based; settings: lactic-acid 10 mM; CHC 425 μM, phloretin 25 μM, antibody 2.5 μg/ml, AR-C155858 increasing concentrations
T1 construct: endogenous in cells
T1 sequence (P53986 1-493): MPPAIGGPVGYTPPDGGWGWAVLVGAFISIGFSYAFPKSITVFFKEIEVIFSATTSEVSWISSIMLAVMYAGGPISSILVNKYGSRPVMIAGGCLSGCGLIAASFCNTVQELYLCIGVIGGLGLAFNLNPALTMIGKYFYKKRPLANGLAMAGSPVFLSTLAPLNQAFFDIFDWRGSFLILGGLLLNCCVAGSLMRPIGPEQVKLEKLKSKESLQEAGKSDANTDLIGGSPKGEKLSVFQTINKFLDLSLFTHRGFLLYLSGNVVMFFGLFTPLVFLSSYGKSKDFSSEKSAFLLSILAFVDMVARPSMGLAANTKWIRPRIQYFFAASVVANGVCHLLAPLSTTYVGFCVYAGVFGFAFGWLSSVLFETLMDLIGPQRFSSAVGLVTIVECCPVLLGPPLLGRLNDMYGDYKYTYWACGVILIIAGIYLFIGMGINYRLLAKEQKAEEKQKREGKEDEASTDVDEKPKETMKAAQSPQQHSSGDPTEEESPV
T1 sequence (P18572 140-389 partner limits assumed): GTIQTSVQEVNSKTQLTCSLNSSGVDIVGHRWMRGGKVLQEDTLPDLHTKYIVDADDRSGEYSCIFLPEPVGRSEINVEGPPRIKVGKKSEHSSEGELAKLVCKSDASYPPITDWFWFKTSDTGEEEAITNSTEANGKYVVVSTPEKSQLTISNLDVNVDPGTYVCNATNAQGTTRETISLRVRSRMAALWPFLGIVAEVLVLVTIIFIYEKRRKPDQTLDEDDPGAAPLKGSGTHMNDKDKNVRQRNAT
Description: as §1

[6] = test system: CFSE-labelled CD4+ T-cells; experiment: Zymosan-induced peritonitis: adoptive transfer of CFSE-labelled CD4+ T-cells; type: in vivo, mouse; settings: co-injected i.p. day 5 after zymosan; 24 h
Experimental: To establish that the decrease in T-cell localization to the peritoneal cavity was at least in part due to their increased release from this site, the inventors performed adoptive transfer experiments whereby CFSE-labelled CD4+ T-cells were co-injected with anti-Slc5a12 antibody, phloretin or an isotype control antibody in the peritoneal cavity of mice which had received zymosan (1 mg/mouse) 5 days before, to create an environment rich of lactate (FIG. 12A). 24 hours after the intra-peritoneal injection of CFSE-labelled CD4+ T-cells, mice were sacrificed, and peritoneal lavage and spleen were harvested.
In vivo zymosan-induced peritonitis: C57BL/6 mice were injected in the peritoneal cavity with zymosan (1 mg per mouse) on day 0 or left untreated. On day 5, Phloretin (50 μM), anti-Slc5a12 antibody (5 μg/ml) or anti-rabbit IgG isotype control antibody (5 μg/ml; Invitrogen) were injected into the peritoneal cavity. 24 hours later, mice were sacrificed and the peritoneal lavage was harvested. T-cells were stained for surface markers (CD4 and CD8; ebiosciences) and analyzed by FACS. […] T-cells were stained for surface markers (CD4 and CD8; ebiosciences) and analyzed by FACS. Cells were first gated on CD4 and subsequently analysed for CFSE positivity. […]

[7] = test system: CD4+ and CD8+ T-cells in the peritoneum; experiment: Zymosan-induced peritonitis: T-cells in peritoneal lavage; type: in vivo, mouse; settings: i.p. day 5 after zymosan, phloretin 50 μM, antibody 5 μg/ml, 24 h
Experimental: The inventors used a well-established mouse model of zymosan-induced peritonitis, in which T-cells are recruited to the inflamed site 5 days after zymosan injection (Montero-Melendez et al 2011 Am J Pathol 179: 259-269). C57BL/6 mice were injected in the peritoneal cavity with zymosan (1 mg/mouse) on day 0 or left untreated. On day 5, Phloretin, an anti-Slc5a12 antibody or an isotype control antibody were injected into the peritoneal cavity. 24 hours later, mice were sacrificed and the peritoneal lavage was harvested.
In vivo zymosan-induced peritonitis: C57BL/6 mice were injected in the peritoneal cavity with zymosan (1 mg per mouse) on day 0 or left untreated. On day 5, Phloretin (50 μM), anti-Slc5a12 antibody (5 μg/ml) or anti-rabbit IgG isotype control antibody (5 μg/ml; Invitrogen) were injected into the peritoneal cavity. 24 hours later, mice were sacrificed and the peritoneal lavage was harvested. T-cells were stained for surface markers (CD4 and CD8; ebiosciences) and analyzed by FACS. This method was used in FIG. 6B and S6A-B. Alternatively C57BL/6 mice were injected in the peritoneal cavity with zymosan (1 mg per mouse) on day 0. […] T-cells were stained for surface markers (CD4 and CD8; ebiosciences) and analyzed by FACS. Cells were first gated on CD4 and subsequently analysed for CFSE positivity. […]

[8] = test system: activated CD4+ T-cells; experiment: Intracellular staining of IL-17 in activated CD4+ T-cells; type: cell-based, mouse; settings: sodium-lactate 10 mM vs untreated
Experimental: Intracellular protein staining: Differentiated T-cells were incubated in permeabilization/fixation buffer (ebioscience) overnight at 4° C. Samples were washed in permeabilization buffer (ebioscience) and stained for the cytokines IFN-γ and IL-17, using fluorescently conjugated primary antibodies (1:200, ebiosciences) at 4° C. for 30 minutes, and assessed by flow cytometry using a LSR Fortessa (BD Biosciences) and FlowJo version 7.6.5 software.

[9] = test system: CD4+ subsets Th0, Th1, Th2 and Th17; experiment: qRT-PCR of cytokines and Rorc in Th0, Th1, Th2, Th17 subsets; type: cell-based, mouse; settings: sodium-lactate 10 mM
Experimental: RNA isolation and reverse transcription: RNA was isolated from 10^6 cells or 10 mg RA synovial tissue using commercially available kits (Qiagen) or Trizol (Life) according to the manufacturer's instructions and assessed for quality and quantity using absorption measurements. Reverse transcription to cDNA was performed according to the manufacturer's instruction (Applied Biosystems).
qRT-PCR: Gene expression analysis was done using SYBR Green Supermix (Biorad) in CFX connect light cycler (Biorad), according to the manufacturer's instructions. Gene relative expression was calculated using the rlAct method and normalized to a reference control (RplpO). Primers for qRT-PCR were designed with the assistance of online tools (Primer 3PIus) using at least one exon junction binding site per primer pair where possible. A complete list of primers used is available in Table 2 below. Gene accession numbers are shown according to GenBank.
Th subset differentiation: T-cells were isolated from murine lymph nodes and enriched for CD3+ and subsequently CD4+ subsets. 10^6 cells were plated/well and differentiated towards Th0, Th1, Th2 and Th17 phenotype. Conditions were: Th0 (10 ng/ml IL-2); Th1 (10 ng/ml IL-2; 3.4 ng/ml IL-12; 2 μg/ml Anti-IL-4); Th2 (10 ng/ml IL-2; 10 ng/ml IL-4; 2 μg/ml Anti-IFN-γ); Th17 (10 ng/ml IL-6; 2 μg/ml Anti-IL-4; 2 μg/ml Anti-IFN-γ, 5 ng/ml TGF-β). All antibodies and cytokines were purchased from PeproTech.

[10] = test system: activated CD4+ T-cells; experiment: Western blot of glycolytic enzymes in activated CD4+ T-cells treated with CXCL10; type: cell-based, mouse; settings: CXCL10 1000 ng/ml; sodium-lactate 10 mM
Experimental: Western blot: Protein lysates were prepared from activated T-cells in RIPA buffer. Proteins were separated with SDS-PAGE and transferred to a Nylon membrane (GE Healthcare). Membranes were blocked for 2 h at room temperature in 5% Milk/TBST, incubated overnight at 4° C. with primary antibodies (1:1000) and subsequently with HRP-conjugated secondary antibody (Amersham Bioscience) (1:5000). Antibodies against hexokinase 1, pyruvate kinase M1/2, Aldolase A, Enolase 1 and 6-actin were purchased from Cell Signaling; antibodies against Slc16a1 and Slc5a12 were purchased from Abeam.

[11] = test system: activated CD4+ T-cells; experiment: Glucose uptake and flux with 2-NBDG / 6-NBDG in CD4+ T-cells; type: cell-based, mouse; settings: 10 mM; 2-NBDG and 6-NBDG probes
Experimental: as §2

[12] = test system: activated CD8+ T-cells; experiment: In vitro chemokinesis of activated CD8+ T-cells towards CXCL10 (transwell); type: cell-based, mouse; settings: 10 mM lactic acid or sodium lactate; CXCL10 300 ng/ml
Description: as §1

[13] = test system: activated CD4+ T-cells; experiment: CCL5-induced chemokinesis of activated CD4+ T-cells; type: cell-based, mouse; settings: 10 mM; CCL5 50 ng/ml
Description: as §1

O=CC[C@@H](O)[C@H](O)[C@H](O)CO [2-DG, 2-deoxyglucose]
chemokinesis in vivo: T-cell recruitment to the peritoneum [1]: decrease | naive T-lymphocyte motility [2]: decrease | effect on glycolysis (ECAR trace) of metabolic drugs [3]: inhibition of glycolysis | chemokinesis in vitro towards CXCL10 of pre-treated activated CD4+ T-cells [4]: decrease

N#CC(=Cc1ccc(O)cc1)C(=O)O [CHC, α-cyano-4-hydroxycinnamate]
chemokinesis of CD8+ T-cells exposed to lactic-acid upon blockade of Slc16a1 [5]: restored

CCOC(=O)[C@@]1(CCCCCCOc2ccc(Cl)cc2)CO1 [etomoxir]
effect on glycolysis (ECAR trace) of metabolic drugs [3]: only minor effects

CN(C)C(=N)N=C(N)N [metformin]
chemokinesis in vivo: T-cell recruitment to the peritoneum [1]: increased | naive T-lymphocyte motility [2]: reduced | effect on glycolysis (ECAR trace) of metabolic drugs [3]: activation of glycolysis | chemokinesis in vitro towards CXCL10 of pre-treated activated CD4+ T-cells [4]: increased

O=C(CCc1ccc(O)cc1)c1c(O)cc(O)cc1O [phloretin]
adoptively transferred T-cells in the peritoneum [6]: not | adoptively transferred T-cells in the spleen [6]: not | CD8+ T-cells in the peritoneum [7]: significant decrease | CD4+ T-cells in the peritoneum ([7]; vs isotype control): did not show any effect | chemokinesis of CD8+ T-cells exposed to lactic-acid upon blockade of Slc16a1 [5]: restored

CC(O)C(=O)[O-].[Na+] (stereo not drawn) [sodium-lactate]
expression of IL-17 protein in CD4+ cells [8]: increased | IL-17 gene expression in Th subsets ([9]; all the Th subsets): significant up-regulation | Rorc gene expression in Th subsets ([9]; all the Th subsets): significantly elevated | gene expression of Th1 and Th2 signature cytokines ([9]; reduced: IL-4, IL-5, IL-13 in Th17 subset): unmodified upon treatment with sodium-lactate or even reduced | glycolysis (ECAR) of CXCL10-stimulated CD4+ T-cells ([3]; CXCL10 1000 ng/ml, sodium-lactate 10 mM): shut down glycolysis | ECAR of CD4+ T-cells, basal conditions ([3]; sodium-lactate 10 mM, untreated control average 14 mpH/min): less than 5 mpH/min | CXCL10-induced upregulation of glycolytic enzymes [10]: inhibited | glucose uptake and flux through glycolysis in CD4+ T-cells [11]: selectively blocks | CXCL10-induced chemokinesis of activated CD8+ T-cells [12]: not vice versa | CCL5-induced migration of CD4+ T-cells [13]: decreased | CXCL10-induced chemokinesis of activated CD4+ T-cells ([4]; 10 mM lactic acid or sodium lactate, CXCL10 300 ng/ml): inhibited | EC50 ([4]; increasing concentration of sodium lactate, CXCL10 300 ng/ml, read-out: EC50 for decrease of migration of CD4+ T-cells): ~10 mM
